What was measured:
Assay in all cases: PXR target gene mRNA expression in differentiated HepaRG cells (RT-qPCR)
Type in all cases: cell-based
CYP2B6 = conditions: 10 µM, 48 h
Protocol: (§1) HepaRG cells (Biopredic, Rennes, France) were cultivated in phenol red-free William’s E medium, supplemented with 10% FBS, 2 mM glutamine, 100 U/mL penicillin, 100 µg/mL streptomycin, 5 µg/mL insulin, and 50 µM hydrocortisone. For gene expression analyses, 1.0 × 10^5 cells were seeded per well of a 12-well plate. After reaching confluence, growth medium was supplemented with 2% DMSO, and cells were further cultivated for 2 weeks for differentiation into hepatocytes, as described previously. Afterward, cells were adapted to induction medium (growth medium with FBS reduced to 2% and 0.2% DMSO) for 48 h. Then chemical treatment was started for another 48 h, with daily medium change.
(§2) Total RNA was prepared from LS174T and HepaRG cells using the NucleoSpin RNA kit (Macherey-Nagel, Düren, Germany). RNA integrity was analyzed by formaldehyde-agarose gel electrophoresis. First strand cDNA was synthesized as described earlier. Relative quantification analyses were conducted with TaqMan RT-PCR utilizing the BioMark HD system and FLEX Six Gene Expression Integrated Fluidic Circuits (Fluidigm, South San Francisco, CA, USA) as described previously. TaqMan gene expression assays were either the commercially available predesigned assays Hs00184500_m1 (ABCB1) and Hs00604506_m1 (CYP3A4) (Thermo Fischer Scientific) or have been described previously: CYP2B6 [31] and 18S rRNA [39]. Data were analyzed as described previously. Gene expression levels were normalized to respective 18S rRNA levels.
(§3) Figure 7 Effects of novel PXR ligands on endogenous PXR target gene expression. […] (B) HepaRG cells were treated with 0.2% DMSO, 10 µM RIF, or 10 µM compound 100 or cotreated with 10 µM RIF and compound 100 for 48 h. mRNA expression was measured as described above.

ABCB1 = conditions: 48 h
Protocol: as §1, §2, §3

CYP3A4 = conditions: 10 µM, 48 h
Protocol: as §1, §2, §3

Structure (SMILES): O=C(Cc1ccccc1)Nc1ccc(F)c(Nc2ccc3c(c2)CCCCC3=O)c1 [Compound 100]
- expression of CYP2B6 mRNA (CYP2B6): induced the expression of ABCB1, CYP2B6, and CYP3A4
- effect on rifampicin-induced expression of ABCB1 (ABCB1; 10 µM compound + 10 µM rifampicin): only minor inhibitory effects
- expression of ABCB1 mRNA (ABCB1; 10 µM): induced the expression of ABCB1, CYP2B6, and CYP3A4
- expression of CYP3A4 mRNA (CYP3A4): induced the expression of ABCB1, CYP2B6, and CYP3A4

Reference: publication PMC9030254, “Target Hopping from Protein Kinases to PXR: Identification of Small-Molecule Protein Kinase Inhibitors as Selective Modulators of Pregnane X Receptor from TüKIC Library” (Cells, 2022)
